The target in experiment [1] is recombinant human KRAS wild type (SOS1-mediated nucleotide exchange) (Homo sapiens (Human), UniProt P01116). Briefly: KRAS biochemical assay, BODIPY-GDP exchange TR-FRET (WT-GDP HTRF). A general note: Time-resolved FRET reads energy transfer from a long-lived donor to a nearby acceptor.
Experiment [2] deals with recombinant human mutant KRas G12V (SOS1-mediated nucleotide exchange) (Homo sapiens (Human), UniProt P01116, G12V). Briefly: KRAS biochemical assay, BODIPY-GDP exchange TR-FRET (G12V-GDP HTRF).
Sequence of recombinant human mutant KRas G12V (SOS1-mediated nucleotide exchange) (P01116-2 other isoform, or with tags, fused parts or gaps G12V): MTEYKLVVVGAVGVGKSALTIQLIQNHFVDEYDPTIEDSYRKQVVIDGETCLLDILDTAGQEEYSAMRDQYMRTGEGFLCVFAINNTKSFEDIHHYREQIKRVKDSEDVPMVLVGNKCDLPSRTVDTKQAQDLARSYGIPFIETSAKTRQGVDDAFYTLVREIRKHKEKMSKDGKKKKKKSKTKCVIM
A further experiment concerns SW620 cells. Briefly: SW620 3D proliferation assay (CellTiter-Glo). The format is cell-based. The conditions noted are these: SW620, 3D culture, 7 days, read-out: SW620 CTG IC50. Put shortly: (§1)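 Cells were seeded in ultra-low attachment plates (3000 or 1000 cells/well for 96- or 384-well format) in RPMI-1640, 10% FBS, 2 mM L-glutamine and cultured overnight at 37 °C/5% CO2 to form spheroids. Compounds were added by 333-fold dilution from DMSO for 7 days. Viability was read as CellTiter-Glo 3D ATP luminescence, with IC50 from a 4-parameter logistic fit.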
A general note: In ATP-based viability assays light output follows the ATP content of the culture.

For a further experiment, the system named is H1975 cells. Briefly: H1975 CTG proliferation assay. In kind it is cell-based.
Another experiment has as its system HPAC cells. The experiment in a line: HPAC 3D proliferation assay (CellTiter-Glo). The format is cell-based. The note with it: 3D culture, 7 days, read-out: HPAC CTG IC50. In a few lines: as §1
For a further experiment, the system named is SW480 cells. Briefly: SW480 CTG proliferation assay. The format is cell-based. The note with it: Homo sapiens.
The test system of a further experiment is SW620 PERK. Briefly: SW620 PERK assay. In kind it is cell-based.
Setting [3] is: Homo sapiens, NCI-H1975, H1975, CTG.
[4] abbreviates: Homo sapiens, SW-620, SW620, PERK.

Read-outs that look alike come from different tables or passages of the source.

Sequence of recombinant human KRAS wild type (SOS1-mediated nucleotide exchange) (P01116-2 other isoform, or with tags, fused parts or gaps): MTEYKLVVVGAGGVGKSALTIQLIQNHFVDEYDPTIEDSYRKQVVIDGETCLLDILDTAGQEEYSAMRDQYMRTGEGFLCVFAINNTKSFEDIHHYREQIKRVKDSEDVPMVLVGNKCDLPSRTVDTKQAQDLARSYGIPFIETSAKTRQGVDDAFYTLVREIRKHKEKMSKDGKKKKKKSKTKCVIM

The IC50 is the midpoint of a concentration-inhibition curve. Regarding `Cc1nc(N)cc(-c2nc3c4c(nc(OC[C@@]56CCCN5C[C@H](F)C6)nc4c2F)N([C@H](C)c2cccnc2N)CCO3)c1C(F)(F)F` [Example 14, 4-(10-((R)-1-(2-aminopyridin-3-yl)ethyl)-4-fluoro-2-(((2R,7aS)-2-fluorotetrahydro-1H-pyrrolizin-7a(5H)-yl)methoxy)-9,10-dihydro-8H-7-oxa-1,3,6,10-tetraazacyclohepta[de]naphthalen-5-yl)-6-methyl-5-(trifluoromethyl)pyridin-2-amine], the IC50 is 0.434 nM in experiment [1]; 0.17 nM in experiment [2]; 13.9 nM in the experiment on SW620 cells (Homo sapiens, SW-620, 168 h); 116 nM with H1975 cells (setting [3]); 76 nM in the experiment on HPAC cells (Homo sapiens, 168 h); 130 nM in the experiment with SW480 cells. Also, 2.65 nM corresponded to half-maximal inhibition in the experiment on SW620 PERK (setting [4]) (IC50).

With `Cc1c(F)c(N)nc(-c2nc3c4c(nc(OC[C@@]56CCCN5C[C@H](F)C6)nc4c2F)N([C@H](C)c2cccnc2N)CCO3)c1C(F)(F)F` [Example 604, 6-(10-((R)-1-(2-aminopyridin-3-yl)ethyl)-4-fluoro-2-(((2R,7aS)-2-fluorotetrahydro-1H-pyrrolizin-7a(5H)-yl)methoxy)-9,10-dihydro-8H-7-oxa-1,3,6,10-tetraazacyclohepta[de]naphthalen-5-yl)-3-fluoro-4-methyl-5-(trifluoromethyl)pyridin-2-amine], the half-maximal inhibitory concentration (IC50) in experiment [1] was 0.225 nM; in experiment [2] it was 0.099 nM; in the experiment on SW620 cells (Homo sapiens, SW-620, 168 h) it was 5.33 nM; with H1975 cells (setting [3]), 283 nM; with HPAC cells (Homo sapiens, 168 h), 26.5 nM; in the experiment on SW480 cells it was greater than 200 nM. This compound also returned an IC50 in the experiment on SW620 PERK (setting [4]) of 2.93 nM.

For `C#Cc1cccc2cc(O)cc(-c3nc4c5c(nc(OC[C@@]67CCCN6C[C@H](F)C7)nc5c3F)N([C@H](C)c3cccnc3N)CCO4)c12` [Example 7, 4-(10-((R)-1-(2-aminopyridin-3-yl)ethyl)-4-fluoro-2-(((2R,7aS)-2-fluorotetrahydro-1H-pyrrolizin-7a(5H)-yl)methoxy)-9,10-dihydro-8H-7-oxa-1,3,6,10-tetraazacyclohepta[de]naphthalen-5-yl)-5-ethynyinaphthalen-2-ol], the IC50 in experiment [1] is 0.12 nM; in experiment [2] it was 0.04 nM; in the experiment on SW620 cells (Homo sapiens, SW-620, 168 h), 1.96 nM; with H1975 cells (setting [3]), 2.59 nM; with HPAC cells (Homo sapiens, 168 h), 19.3 nM; in the experiment with SW480 cells, 12 nM. Also, it took 1.13 nM to reach half-maximal inhibition with SW620 PERK (setting [4]) (IC50).

For `Cc1cc(N)c(Cl)c(-c2nc3c4c(nc(OC[C@@]56CCCN5C[C@H](F)C6)nc4c2F)N([C@H](C)c2cccnc2N)CCO3)c1C(F)(F)F` (single isomer, unassigned) [Example 21b], the IC50 amounted to 0.07 nM in experiment [1]; 0.05 nM in experiment [2]; 1 nM in the experiment with SW620 cells; 2.59 nM in the experiment on H1975 cells (H1975, CTG); 4.43 nM with HPAC cells; 2.4 nM in the experiment with SW480 cells. This compound also returned an IC50 in the experiment with SW620 PERK (SW620, PERK) of 0.555 nM.

Regarding `Cc1c(F)c(N)cc(-c2nc3c4c(nc(OC[C@@]56CCCN5C[C@]5(CC5(F)F)C6)nc4c2F)N([C@H](C)c2cncnc2N)CCO3)c1C(F)(F)F` [Example 616], the IC50 is 0.195 nM in experiment [1]; 0.09 nM in experiment [2]; 8.46 nM in the experiment with SW620 cells (Homo sapiens, SW-620, 168 h); 2.59 nM in the experiment with H1975 cells (setting [3]); 50.4 nM with HPAC cells (Homo sapiens, 168 h); greater than 200 nM in the experiment with SW480 cells. Further, in the experiment with SW620 PERK (setting [4]), the IC50 came to 4.64 nM.

With `C#Cc1c(F)ccc2cc(O)cc(-c3nc4c5c(nc(OC[C@@]67CCCN6C[C@H](F)C7)nc5c3F)N([C@H](C)c3cccnc3N)CCO4)c12` [Example 2, 4-(10-((R)-1-(2-aminopyridin-3-yl)ethyl)-4-fluoro-2-(((2R,7aS)-2-fluorotetrahydro-1H-pyrrolizin-7a(5H)-yl)methoxy)-9,10-dihydro-8H-7-oxa-1,3,6,10-tetraazacyclohepta[de]naphthalen-5-yl)-5-ethynyl-6-fluoronaphthalen-2-ol], the IC50 in experiment [1] turned out to be 0.0671 nM; in experiment [2], 0.08 nM; in the experiment on SW620 cells (Homo sapiens, SW-620, 168 h), 2.41 nM; in the experiment on H1975 cells (setting [3]), 2.59 nM; in the experiment on HPAC cells (Homo sapiens, 168 h), 20.8 nM; in the experiment with SW480 cells, 2.9 nM. Besides, inhibition in the experiment on SW620 PERK (setting [4]) was half-maximal at 1.29 nM (IC50).

As for `Cc1nc(N)cc(-c2nc3c4c(nc(OC[C@@]56CCCN5C[C@]5(CC5(F)F)C6)nc4c2F)N([C@H](C)c2cccnc2N)CCO3)c1C(F)(F)F` [Example 615], the IC50 in experiment [1] was found to be 0.175 nM; in experiment [2], 0.14 nM; with SW620 cells (Homo sapiens, SW-620, 168 h) it was 1.92 nM; in the experiment on H1975 cells (setting [3]), 951 nM; in the experiment with HPAC cells (Homo sapiens, 168 h), 12.3 nM; with SW480 cells, 18 nM. This compound also showed an IC50 in the experiment on SW620 PERK (setting [4]) of 2.02 nM.

In the case of `Cc1cc(N)c(F)c(-c2nc3c4c(nc(OC[C@@]56CCCN5C[C@]5(CC5(F)F)C6)nc4c2F)N([C@H](C)c2nccnc2N)CCO3)c1C(F)(F)F` [Example 609], the IC50 came out at 0.415 nM in experiment [1]; 0.21 nM in experiment [2]; 5.72 nM with SW620 cells (Homo sapiens, SW-620, 168 h); 14500 nM in the experiment with H1975 cells (setting [3]); 34 nM with HPAC cells (Homo sapiens, 168 h); 58 nM in the experiment on SW480 cells. Further, in the experiment with SW620 PERK (setting [4]), the IC50 was 5.62 nM.

As for `Cc1cc(N)nc(-c2nc3c4c(nc(OC[C@@]56CCCN5C[C@]5(CC5(F)F)C6)nc4c2F)N([C@H](C)c2cccnc2N)CCO3)c1C(F)(F)F` [Example 635], the IC50 is 0.325 nM in experiment [1]; 0.21 nM in experiment [2]; 3.55 nM in the experiment on SW620 cells (Homo sapiens, SW-620, 168 h); 2.54 nM in the experiment with H1975 cells (setting [3]); 11.8 nM in the experiment on HPAC cells (Homo sapiens, 168 h); greater than 200 nM in the experiment with SW480 cells. In the experiment with SW620 PERK (setting [4]), this compound returned an IC50 of 2.15 nM.

With `Cc1c(F)c(N)c(F)c(-c2nc3c4c(nc(OC[C@@]56CCCN5C[C@H](F)C6)nc4c2F)N([C@H](C)c2cccnc2N)CCO3)c1C(F)(F)F` [Example 12, 3-((1R)-1-(5-(3-amino-2,4-difluoro-5-methyl-6-(trifluoromethyl)phenyl)-4-fluoro-2-(((2R,7aS)-2-fluorotetrahydro-1H-pyrrolizin-7a(5H)-yl)methoxy)-8,9-dihydro-10H-7-oxa-1,3,6,10-tetraazacyclohepta[de]naphthalen-10-yl)ethyl)pyridin-2-amine], the IC50 came out at 5.63 nM in the experiment on SW620 cells (Homo sapiens, SW-620, 168 h); 59.4 nM in the experiment with H1975 cells (setting [3]); 14.7 nM in the experiment with HPAC cells (Homo sapiens, 168 h); 2.8 nM in the experiment on SW480 cells; 1.62 nM in the experiment with SW620 PERK (setting [4]).

`Cc1c(F)c(N)cc(-c2nc3c4c(nc(OC[C@@H]5CC[C@H]6COCCN65)nc4c2F)N([C@H](C)c2cccnc2N)CCO3)c1C(F)(F)F` [Example 16, 3-((R)-1-(5-(5-amino-4-fluoro-3-methyl-2-(trifluoromethyl)phenyl)-4-fluoro-2-(((6S,8aS)-hexahydro-1H-pyrrolo[2,1-c][1,4]oxazin-6-yl)methoxy)-8,9-dihydro-10H-7-oxa-1,3,6,10-tetraazacyclohepta[de]naphthalen-10-yl)ethyl)pyridin-2-amine]: the 50% inhibitory concentration (IC50) in the experiment with SW620 cells (Homo sapiens, SW-620, 168 h) was 3.77 nM; in the experiment with H1975 cells (setting [3]) it was 31.1 nM; with HPAC cells (Homo sapiens, 168 h) it was 30.2 nM; in the experiment with SW480 cells, 10 nM; in the experiment with SW620 PERK (setting [4]), 2.53 nM.

`C[C@H](c1cccnc1N)N1CCOc2nc(-c3cccc4sc(N)nc34)c(F)c3nc(OC[C@@]45CCCN4C[C@H](F)C5)nc1c23` [Example 24, 4-(10-((R)-1-(2-aminopyridin-3-yl)ethyl)-4-fluoro-2-(((2R,7aS)-2-fluorotetrahydro-1H-pyrrolizin-7a(5H)-yl)methoxy)-9,10-dihydro-8H-7-oxa-1,3,6,10-tetraazacyclohepta[de]naphthalen-5-yl)benzo[d]thiazol-2-amine]: the IC50 in the experiment with SW620 cells (Homo sapiens, SW-620, 168 h) was 1020 nM; with H1975 cells (setting [3]) it was 5170 nM; with HPAC cells (Homo sapiens, 168 h), 2000 nM; in the experiment on SW480 cells, 700 nM; in the experiment with SW620 PERK (setting [4]) it was 466 nM.

(Values after patent US20240228512A1, “ACYCLIC OXAZEPINE COMPOUNDS COMPRISING A 6-AZA MOIETY AND USES THEREOF” (Genentech, Inc., priority 2022, published 2024).)
